Test results as given in patent publication US7781565B2 (priority 2006, dated 2010).
“Also recorded” adds a separate entry of the source.

These substances were tested on NCI-60 cell lines.
Assay type: cell-based, human

Row | Substance | Cell Line the peptide is associated with (peptide recovered from phage library selection on this NCI-60 cell line) | Cell Line (NCI-60 cell line the peptide is associated with) | Cell Line (NCI-60 cell line the peptide and its motif are associated with) | Cell Line with which the peptide (and its tripeptide motif) is associated
1 | LVSYSAV | RXF393 Renal |  |  | 
2 | LVYSGRL |  | SW620-Colon |  | 
3 | LWFELVS | MCF-7 Breast |  |  | 
4 | LWGLGWL |  | HCC-2998-Colon |  | 
5 | LWLRSRE |  |  | UACC 257 Melanoma | 
6 | LYGGVRY |  |  |  | A549-Lung
7 | LYGVRYG |  |  |  | RPMI-8226-Leukemia
8 | LYLLSSA |  |  | SK-MEL-5 Melanoma | 
9 | LYMGGSH | TK-10 Renal |  |  | 
10 | LYVDASL | MDA-MB-435-Breast |  |  | 
11 | MDGVSTE | A498 Renal |  |  | 
12 | MERVAGR | SN12C Renal |  |  | 
13 | MFARGWE |  |  |  | CCRF-CEM Leukemia
14 | MGMSGPS |  |  |  | CCRF-CEM Leukemia
15 | MGPSARW | BT-549 Breast |  |  | 
16 | MGSAVSL |  |  |  | Hop-92-Lung
17 | MGVLTAE |  | SNB-19 CNS; also recorded: SF-539 CNS |  | 
18 | MITRGRL |  | HCT-15 Colon |  | 
19 | MLASAGR |  |  |  | HL-60-Leukemia
20 | MLGRGSV | SN12C Renal |  |  | 
21 | MLGSASL | A498 Renal |  |  | 
22 | MPAGLGV | RXF393 Renal |  |  | 
23 | MPGSSRP | RXF393 Renal |  |  | 
24 | MQGRVIV |  |  | SK-OV-3-3 Ovarian | 
25 | MQLRGAV |  |  | OVCAR-4 Ovarian | 
26 | MRGSGRN |  | KM-12C Colon |  | 
27 | MRGVARK |  |  | A498 Renal | 

Row | Substance | Cell Line the peptide is associated with (peptide recovered from phage library selection on this NCI-60 cell line) | Cell Line (NCI-60 cell line the peptide is associated with) | Cell Line (NCI-60 cell line the peptide and its motif are associated with) | Cell Line with which the peptide (and its tripeptide motif) is associated
28 | MRPGLRS | MDA-MB-231 Breast |  |  | 
29 | MRYELRS | SN12C Renal |  |  | 
30 | MSAFGRL |  |  |  | EKVX-Lung
31 | MSARGIL |  |  | SK-OV-3-3 Ovarian | 
32 | MSNLAAV |  | COLO-205-Colon |  | 
33 | MVLRGSY |  | SNB-75 CNS |  | 
34 | MVYSGVS |  |  | M14 Melanoma | 
35 | MYLRLLR |  | HCT-116 Colon |  | 
36 | NAASLPS |  |  |  | SR Leukemia
37 | NAGRGAS | TK-10 Renal |  |  | 
38 | NAVRGSA |  | HCT-116 Colon |  | 
39 | NCYSLRS |  |  | OVCAR-4 Ovarian | 
40 | NEFLGRL |  | HCT-116 Colon |  | 
41 | NEGRLGI |  | SNB-75 CNS |  | 
42 | NELRVCR | SN12C Renal |  |  | 
43 | NGGRVLS | ACHN Renal |  |  | 
44 | NGRGSGW |  |  |  | HL-60-Leukemia
45 | NKGGLRQ |  |  | SK-OV-3-3 Ovarian | 
46 | NLADGSV |  |  |  | H322-Lung
47 | NLRGSRS |  |  | SK-MEL-2 Melanoma | 
48 | NLRVGAE |  |  | OVCAR-4 Ovarian | 
49 | NMAGGQE |  |  | IGROV1 Ovarian | 
50 | NMGAVGS |  |  | DU-145 Prostate | 
51 | NMGRGSL | ACHN Renal |  |  | 
52 | NNVGGSS |  |  | OVCAR-4 Ovarian | 
53 | NPGLVWN | MDA-MB-231 Breast |  |  | 
54 | NRAVLSA |  |  | SK-OV-3-3 Ovarian | 

Row | Substance | Cell Line the peptide is associated with (peptide recovered from phage library selection on this NCI-60 cell line) | Cell Line (NCI-60 cell line the peptide is associated with) | Cell Line (NCI-60 cell line the peptide and its motif are associated with) | Cell Line with which the peptide (and its tripeptide motif) is associated
55 | NRSSAKF |  |  |  | K-562-Leukemia
56 | NRSSGRR |  |  |  | SR Leukemia
57 | NRSSHCG |  |  | M14 Melanoma | 
58 | NSFGLRY |  | COLO-205-Colon |  | 
59 | NSGSVVS | MDA-MB-231 Breast |  |  | 
60 | NSKPLVS | T-47D Breast |  |  | 
61 | NSQRSSV |  |  | UACC 257 Melanoma | 
62 | NSVRGSR |  |  | SK-OV-3-3 Ovarian | 
63 | NVGGGRF | NCI/ADR-RES Breast |  |  | 
64 | NVSRAVG |  |  | OVCAR-8 Ovarian | 
65 | NWDARGR |  |  | M14 Melanoma | 
66 | NYGSSFH |  |  |  | Hop-62-Lung
67 | NYMGPSA |  |  |  | A549-Lung
68 | PAASRLL |  |  |  | RPMI-8226-Leukemia
69 | PAFGPSR |  |  |  | RPMI-8226-Leukemia
70 | PAGRMLS |  |  | SK-MEL-2 Melanoma | 
71 | PAILRVR | UO31 Renal |  |  | 
72 | PATRGSV |  |  |  | Hop-92-Lung
73 | PAVAGST | HS 578 T Breast |  |  | 
74 | PDRASDG |  |  |  | Hop-62-Lung
75 | PEGGRRP | SN12C Renal |  |  | 
76 | PFHRRAV | T-47D Breast |  |  | 
77 | PFPARSS |  |  |  | H23-Lung
78 | PGAVLTV |  | COLO-205-Colon |  | 
79 | PGAVPGA |  | HT-29 Colon |  | 
80 | PGFMAGS |  |  | UACC62 Melanoma | 
